Experimental data taken from the NIST ThermoML archive (doi:10.1021/je100610v).

Columns and labels:
[1] = 101 kPa, Liquid; for speed of sound: Pulse-echo method
[2] = molar heat capacity at constant pressure; settings: 101 kPa, Liquid
[3] = xn = mol fraction of the nth substance listed; settings: 101 kPa, Liquid, x2 = 0; for speed of sound: Pulse-echo method

ClCCCCCCCl [1,6-dichlorohexane]
Settings	mass density [kg/m3]	molar heat capacity at constant pressure [J/K/mol]	speed of sound [m/s]
[1], 293.01 K	–	–	1337.8
[1], 293.15 K	1068.33	–	–
[1], 298.15 K	1063.61	–	–
[1], 298.18 K	–	–	1319.7
[1], 303.15 K	1058.87	–	1302.4
[1], 308.14 K	–	–	1285
[1], 308.15 K	1054.14	–	–
[1], 313.15 K	1049.39	–	–
[1], 313.23 K	–	–	1267.4
[2], 293.15 K	–	239.21	–
[2], 294.15 K	–	239.5	–
[2], 295.15 K	–	239.69	–
[2], 296.15 K	–	240.02	–
[2], 297.15 K	–	240.35	–
[2], 298.15 K	–	240.64	–
[2], 299.15 K	–	240.85	–
[2], 300.15 K	–	241.15	–
[2], 301.15 K	–	241.46	–
[2], 302.15 K	–	241.8	–
[2], 303.15 K	–	242.06	–
[2], 304.15 K	–	242.34	–
[2], 305.15 K	–	242.62	–
[2], 306.15 K	–	242.83	–
[2], 307.15 K	–	243.21	–
[2], 308.15 K	–	243.49	–
[2], 309.15 K	–	243.73	–
[2], 310.15 K	–	244	–
[2], 311.15 K	–	244.35	–
[2], 312.15 K	–	244.68	–
[2], 313.15 K	–	244.91	–

CCCCCCC [heptane]
[1]
Settings	mass density [kg/m3]	speed of sound [m/s]
292.7 K	–	1154.1
293.15 K	683.79	–
298 K	–	1131.1
298.15 K	679.56	–
302.98 K	–	1109.5
303.15 K	675.3	–
308.06 K	–	1087.4
308.15 K	671.02	–
313.15 K	666.71	–
313.45 K	–	1064.3

CCCCCCC [heptane] + ClCCCCCCCl
[3]
Settings	mass density [kg/m3]	speed of sound [m/s]
292.7 K	–	1154.1
293.15 K	683.79	–
298 K	–	1131.1
298.15 K	679.56	–
302.98 K	–	1109.5
303.15 K	675.3	–
308.06 K	–	1087.4
308.15 K	671.02	–
313.15 K	666.71	–
313.45 K	–	1064.3
